This note sets out measurements from patent publication US5214048A, “Oxetanocins” (priority 1987, dated 1993).

Data set [1] relates to B lymphocyte (spleen cells stimulated by LPS). The experiment in a line: Inhibition of B lymphocyte blastgenesis caused by LPS. Format: cell-based, BALB/C mouse. Particulars: for inhibition at 4 µg/mL / inhibition at 20 µg/mL: Mus musculus, Lymphocyte, read-out: Inhibitory rate (%) on blastgenesis of B lymphocyte caused by LPS; for inhibition at 4 µg/mL: 4.0 μg/ml; for inhibition at 20 µg/mL: 20.0 μg/ml. The protocol:
(§1) In the similar method to Waithe et al. (Waithe et al., Handbook of Experimental Immunology, 26, 1, 1978), compounds OXT-X, 2-amino-OXT-A and OXT-G were examined for the effect on lymphocyte blastgenesis.
Inhibition of B lymphocyte blastgenesis caused by LPS (lipopolysaccharide)
According to the method of Test Example 1 (except that 100 μg/ml of Escherichia coli LPS was added in place of Con A), the intake of ^3 [H]-thymidine into blastgenesis B cells was measured. The inhibitory rate of the test sample was similarly determined.

The test system of data set [2] is HIV (human immunodeficiency virus). Briefly: Anti-HIV activity (development of virus antigen in MT-4 cells). The conditions noted are these: DMSO only 80 to 90%. Format: cell-based. On the procedure:
(b) Anti-HIV (human immunodeficiency virus) activity
MT-4 cell (about 100,000 cells/ml) was added into a 24 well tray, and then 100 microliters of a solution containing a predetermined quantity of a compound of this invention was added. After culturing it at 37° C. for 5 hours in 5% (v/v) carbon dioxide incubator, 10^3 to 10^4 infection units of HIV was added and cultured for 4 days. Then, a part of the culture fluid was coated onto a slide glass and immobilized with acetone, after which development of virus antigen was observed by indirect fluorescent antibody method.
As the primary antibody of the fluorescent antibody method, a serum of AIDS patient was used. As its secondary antibody, FITC-labelled […] was used.

Data set [3] has as its system MT-4 cells. The experiment in a line: Cell denaturation of MT-4 cells without virus. Format: cell-based. The conditions noted are these: 100 μg/ml.
Data set [4] concerns T lymphocyte (spleen cells stimulated by Con A). Briefly: Inhibition of T lymphocyte blastgenesis caused by Con A. Format: cell-based, BALB/C mouse. The conditions noted are these: for inhibition at 0.8 µg/mL / inhibition at 4 µg/mL / inhibition at 20 µg/mL: Mus musculus, T-lymphocyte, read-out: Inhibitory rate (%) on T lymphocyte blastgenesis caused by Con A; for inhibition at 0.8 µg/mL: 0.8 μg/ml; for inhibition at 4 µg/mL: 4.0 μg/ml; for inhibition at 20 µg/mL: 20.0 μg/ml. The protocol: as §1
Inhibition of T lymphocyte blastgenesis caused by Con A:
Spleen cells of BALB/C mouse were dividingly poured into microplate at a rate of 2×10^5 cells/0.2 ml/well. Test compounds of varied concentration were added to wells other than control group. Further, Con A was added to all the wells at a rate of 5 micrograms/ml. Then, the cell suspensions were cultured at 37° C. for 72 hours in a culture chamber having an atmosphere of 5% v/v carbon dioxide. The extent of lymphocyte blastgenesis was determined by adding 1 μci/well of ^3 [H]-thymidine 6 hours before completion of culture and measuring the intake into cultured cells by means of a liquid scintillation counter. Numerical value (1-B dpm/A dpm)×100 was taken as inhibitory rate of each sample compound on blastgenesis, wherein A dpm was intake count in the case of adding Con A only and B dpm was intake count in the case of adding Con A and the sample compound.

The subject of data set [5] is herpes simplex virus type-2 (HSV-2) strain 186. Briefly: Effect of treatment against HSV-2 infection in mice. The data set is classed as in vivo, ICR mice. The conditions noted are these: 5 days. The protocol: (a) Effect of treatment with OXTs against HSV-2 infection in mice
The 8-week old male ICR mice were inoculated intraperitoneally (ip) with herpes simplex virus type-2(HSV-2)strain 186 at 2.5×10^5 PFU/0.2 ml/mouse. OXTs were administered ip once a day with the indicated doses for 5 days, starting 6 hours after inoculation. The survival rates (%)of mice treated with OXTs were evaluated at least for 3 weeks after inoculation.

The subject of data set [6] is duck hepatitis B virus (DHBV). The experiment in a line: Efficacy against DHBV-infected duck (dot-blot hybridization of sera). The data set is classed as in vivo. The conditions noted are these: 6 days. On the procedure:
(c) Efficacy of OXT-G and 2-Amino-OXT-A against DHBV-infected Duck Newborn ducklings were intraperitoneally infected with 50 μl of duck hepatitis B virus (DHBV) containing sera. Persistent infection in ducks was confirmed by dot-blot hybridization of sera taken from 6 week old ducks. Ducks were intraperitoneally treated with the indicated doses of OXT-G and 2-Animo-OXT-A once a day for 6 days. After treatment of OXTs sera were collected and examined for the presence of DHBV-DNA by dot-blot hybridization as ^32 p-labeled DHBV DNA probe.

Data set [7] has as its system cytomegalovirus (A01169 strain). Briefly: Anti-cytomegalovirus activity (plaque formation on human fetal fibroblasts). Format: cell-based. The conditions noted are these: for IC50: Human betaherpesvirus 5, Fibroblast, 240 h, human fetal fibroblasts, 10 days.
Data set [8] concerns murine cytomegalovirus (MCMV) Smith strain. The experiment in a line: Efficacy against MCMV infection in mice, body weight. The data set is classed as in vivo, ICR mice. Particulars: 10 mg/kg/day. The protocol: (b) Efficacy of treatment with OXT-G against MCMV infection in mice The 4-week old male ICR mice was inoculated intraperitoneally with Smith strain of murine cytomegalovirus (MCMV) at 1×10^5 PFU/0.2 ml and treated with 10 mg/kg/day of OXT-G once a day for 5 days, starting 6 hours after inoculation. The mortality and changes in body weight were monitored every day.

Data set [9] shares this test system. Briefly: Titers of MCMV in various tissues of mice. The conditions noted are these: for Virus titer: 6 days after infection. Format: in vivo, ICR mice.

The structures appear in SMILES notation. ≈ marks a conversion by molar mass, not a printed value.

With `O=c1[nH]c(=O)c2ncn([C@@H]3O[C@H](CO)[C@H]3CO)c2[nH]1` [OXT-X], in data set [1], the “effect on blastgenesis of B lymphocyte stimulated by LPS” value (shortened to “effect on blastgenesis … by LPS”) is on record as “markedly suppressed”, the inhibition at 4 µg/mL turned out to be 8% and the inhibition at 20 µg/mL was found to be 27%. Moreover, in [2] (1 μg/ml), the “Development of virus antigen (%)” value came out at 66%. In data set [2] (10 μg/ml), the “Development of virus antigen (%)” value amounted to 52%. For the same molecule, in [2] (100 μg/ml), the “Development of virus antigen (%)” value worked out at 5%. The Cell denaturation entry in data set [3] is “±~+”. Moreover, in data set [4], the “effect on blastgenesis of T lymphocyte stimulated by Con A” value (shortened to “effect on blastgenesis … by Con A”) is listed as “markedly suppressed”, the inhibition at 0.8 µg/mL was found to be 11%, the inhibition at 4 µg/mL turned out to be 36% and the inhibition at 20 µg/mL was found to be 71%.
On to `Nc1nc(N)c2ncn([C@@H]3O[C@H](CO)[C@H]3CO)c2n1` [2-Amino-OXT-A], for which, in data set [1], the “effect on blastgenesis … by LPS” value is recorded as “markedly suppressed”, the inhibition at 4 µg/mL stood at 23% and the inhibition at 20 µg/mL was determined as 93%. In [5] (10 mg/kg/day ip), the Survivor/Total is given as 7/10 and the “survival rate (%)” value worked out at 70%. The “Development of virus antigen (%)” value in data set [2] (1 μg/ml) is on record as 30%. The “Development of virus antigen (%)” value in data set [2] (10 μg/ml) is 26%. For the same molecule, the “Development of virus antigen (%)” value in [2] (100 μg/ml) is reported as 5%. Besides, in data set [3], the Cell denaturation entry is reported as “±~+”. In data set [6] (20 mg/kg/day ip), the “Content (%) of DHBV in sera” value is given as 28%. For the same molecule, the “Content (%) of DHBV in sera” value in data set [6] (50 mg/kg/day ip) worked out at 18%. Also, the “Content (%) of DHBV in sera” value in data set [6] (100 mg/kg/day ip) is on record as 8%. For the same molecule, in data set [7], the “anti-cytomegalovirus inhibitory action” value is “particularly outstanding in the inhibitory action” and half-maximal inhibition (IC50) required 2 µg/mL (≈ 7.51 µM). In addition, in [4], the “effect on blastgenesis … by Con A” value is given as “markedly suppressed”, the inhibition at 0.8 µg/mL was found to be 21%, the inhibition at 4 µg/mL was 94% and the inhibition at 20 µg/mL was 99%.
In data set [7], `O=c1[nH]cnc2c1ncn2[C@@H]1O[C@H](CO)[C@H]1CO` [OXT-H, reference compound] gave an IC50 of 18 µg/mL (≈ 71.4 µM).
Regarding `Nc1nc2c(ncn2[C@@H]2O[C@H](CO)[C@H]2CO)c(=O)[nH]1` [OXT-G], the “effect on blastgenesis … by LPS” value in data set [1] was “markedly suppressed”. Also, the figures for the inhibition at 4 µg/mL in data set [1] and in [4] were 64% and 96%, respectively. Besides, the inhibition at 20 µg/mL was found to be 93% in [1] and 100% in data set [4]. Further, the Survivor/Total is given as 3/10 in data set [5] (5 mg/kg/day ip), 8/10 in data set [5] (10 mg/kg/day ip) and 10/10 in data set [5] (20 mg/kg/day ip). Moreover, the “survival rate (%)” value stood at 30% in [5] (5 mg/kg/day ip), 80% in data set [5] (10 mg/kg/day ip) and 100% in data set [5] (20 mg/kg/day ip). In addition, the “Development of virus antigen (%)” value stood at 42% in data set [2] (1 μg/ml) and 17% in data set [2] (10 μg/ml). Also, the “body weight of MCMV-infected mice” value in data set [8] was “maintained their body weight on the initial level for several days and gradually gained weight thereafter”. Further, the “Average (5 mice) of body weight” value in data set [8] (day 0) came to 18.0 g; in data set [8] (day 4), 20.0 g; in data set [8] (day 8) it was 24.5 g; in [8] (day 14), 31.0 g. Besides, the “Content (%) of DHBV in sera” value was found to be 9% in [6] (20 mg/kg/day ip), 25% in data set [6] (50 mg/kg/day ip) and 3% in data set [6] (100 mg/kg/day ip). Moreover, in [7], the “anti-cytomegalovirus inhibitory action” value is listed as “particularly outstanding in the inhibitory action”. In data set [7], this molecule returned an IC50 of 1 µg/mL (≈ 3.74 µM). For the same molecule, the “effect on blastgenesis … by Con A” value in data set [4] was “markedly suppressed”. Besides, the inhibition at 0.8 µg/mL in data set [4] is 85%. Further, the Virus titer in [9] (Kidney), in [9] (Liver), in data set [9] (Lung) and in data set [9] (Spleen) was < 2 PFU/0.1 g tissue in each case. Further, the “quantity of MCMV recovered from the tissues” value in data set [9] (mouse, in vivo) was “significant reduction in the quantity of MCMV recovered from the tissues”.
In turn, `Nc1ncnc2c1ncn2[C@@H]1O[C@H](CO)[C@H]1CO` [OXT-A, reference compound] yielded an IC50 in [7] of 13 µg/mL (≈ 51.7 µM).
